Laboratory results taken from ChEMBL document CHEMBL3885861, “Open TG-GATES”.

Species: Rattus norvegicus
Experiment: Open TG-GATES - Regimen: Single
Assay type: toxicity, organism-based, Sprague-Dawley
Design: regimen Single, gender Male, age 6 weeks
Settings: in vivo, po, 0 mg/kg, route gavage, dose level Control; for APTT / Bas / Eos / Fbg / Hb / Ht / Lym / MCH / MCHC / MCV / Mono / Neu / PT / Plat / RBC / Ret / WBC: tissue Blood; for KIDNEY_L / KIDNEY_R / KIDNEY_TOTAL: tissue Kidney; for LIVER: tissue Liver; for A/G / ALP / ALT / AST / BUN / CRE / Ca / Cl / DBIL / GLC / IP / K / LDH / Na / PL / RALB / TBIL / TC / TG / TP / gamma-GTP: tissue Plasma

Clc1c(Cl)c(Cl)c(Cl)c(Cl)c1Cl [PERCHLOROBENZENE] was tested, and the TERMINAL_BW (3 h) was 219.4 g, the APTT (3 h) was 19.3 s and the Bas (3 h) was 0.2%. The Eos (3 h) was 0.8%, the Fbg (3 h) was 218.8 mg/dL and the Hb (3 h) was 13.5 g/dL. For the same compound, the Ht (3 h) was 38.6%, the Lym (3 h) was 75.4% and the MCH (3 h) was 21.1 pg. The MCHC (3 h) was 34.9%, the MCV (3 h) was 60.3 fL and the Mono (3 h) was 3.2%. It also gave a Neu (3 h) of 18.6%, a PT (3 h) of 11.9 s and a Plat (3 h) of 122 x10_4/uL. It also gave an RBC (3 h) of 639.6 x10_4/ul, a Ret (3 h) of 7.1% and a WBC (3 h) of 76.5 x10_2/uL. It also gave a KIDNEY_L (3 h) of 1 g, a KIDNEY_R (3 h) of 1 g and a KIDNEY_TOTAL (3 h) of 2 g. The LIVER (3 h) was 9.9 g, the A/G (3 h) was 1.7 and the ALP (3 h) was 1008.2 IU/L. It also gave an ALT (3 h) of 42.8 IU/L, an AST (3 h) of 78 IU/L and a BUN (3 h) of 11.4 mg/dL. The CRE (3 h) was 0.4 mg/dL, the Ca (3 h) was 10.9 mg/dL and the Cl (3 h) was 103.4 meq/L. The DBIL (3 h) was 0.07 mg/dL, the GLC (3 h) was 187.2 mg/dL and the IP (3 h) was 8.4 mg/dL. It also gave a K (3 h) of 4 meq/L, an LDH (3 h) of 216.2 IU/L and a Na (3 h) of 140.6 meq/L. For the same compound, the PL (3 h) was 156.8 mg/dL, the RALB (3 h) was 3.5 g/dL and the TBIL (3 h) was 0.1 mg/dL. The TC (3 h) was 76.8 mg/dL, the TG (3 h) was 103.4 mg/dL and the TP (3 h) was 5.5 g/dL. For the same compound, the gamma-GTP (3 h) was 1 IU/L, the TERMINAL_BW (6 h) was 219.4 g and the APTT (6 h) was 19.5 s. For the same compound, the Bas (6 h) was 0.2%, the Eos (6 h) was 0.6% and the Fbg (6 h) was 230.4 mg/dL. The Hb (6 h) was 13.5 g/dL, the Ht (6 h) was 38.4% and the Lym (6 h) was 79.6%. The MCH (6 h) was 21.7 pg, the MCHC (6 h) was 35.3% and the MCV (6 h) was 61.5 fL. The Mono (6 h) was 3.2%, the Neu (6 h) was 14.8% and the PT (6 h) was 11.7 s. For the same compound, the Plat (6 h) was 134.1 x10_4/uL, the RBC (6 h) was 624 x10_4/ul and the Ret (6 h) was 7.2%. The WBC (6 h) was 106.3 x10_2/uL, the KIDNEY_L (6 h) was 1 g and the KIDNEY_R (6 h) was 1 g. The KIDNEY_TOTAL (6 h) was 2 g, the LIVER (6 h) was 9.6 g and the A/G (6 h) was 1.5. The ALP (6 h) was 958.2 IU/L, the ALT (6 h) was 32 IU/L and the AST (6 h) was 70.6 IU/L. For the same compound, the BUN (6 h) was 9.2 mg/dL, the CRE (6 h) was 0.4 mg/dL and the Ca (6 h) was 10.6 mg/dL. It also gave a Cl (6 h) of 102.6 meq/L, a DBIL (6 h) of 0.06 mg/dL and a GLC (6 h) of 192.8 mg/dL. The IP (6 h) was 9.4 mg/dL, the K (6 h) was 4.2 meq/L and the LDH (6 h) was 216.4 IU/L. The Na (6 h) was 140.2 meq/L, the PL (6 h) was 149.6 mg/dL and the RALB (6 h) was 3.3 g/dL. For the same compound, the TBIL (6 h) was 0.1 mg/dL, the TC (6 h) was 77.6 mg/dL and the TG (6 h) was 71.2 mg/dL. The TP (6 h) was 5.6 g/dL, the gamma-GTP (6 h) was 1.2 IU/L and the TERMINAL_BW (9 h) was 215.4 g. The APTT (9 h) was 21.3 s, the Bas (9 h) was 0.2% and the Eos (9 h) was 1%. The Fbg (9 h) was 226.6 mg/dL, the Hb (9 h) was 13.5 g/dL and the Ht (9 h) was 38.6%. For the same compound, the Lym (9 h) was 75%, the MCH (9 h) was 21.1 pg and the MCHC (9 h) was 35%. The MCV (9 h) was 60.2 fL, the Mono (9 h) was 2.6% and the Neu (9 h) was 19.8%. The PT (9 h) was 12.3 s, the Plat (9 h) was 128.3 x10_4/uL and the RBC (9 h) was 641.8 x10_4/ul. For the same compound, the Ret (9 h) was 7%, the WBC (9 h) was 90.9 x10_2/uL and the KIDNEY_L (9 h) was 1 g. The KIDNEY_R (9 h) was 0.9 g, the KIDNEY_TOTAL (9 h) was 1.9 g and the LIVER (9 h) was 8.7 g. The A/G (9 h) was 1.6, the ALP (9 h) was 849.2 IU/L and the ALT (9 h) was 28.4 IU/L. For the same compound, the AST (9 h) was 62.4 IU/L, the BUN (9 h) was 9.4 mg/dL and the CRE (9 h) was 0.3 mg/dL. The Ca (9 h) was 10.7 mg/dL, the Cl (9 h) was 103.6 meq/L and the DBIL (9 h) was 0.068 mg/dL. It also gave a GLC (9 h) of 198.8 mg/dL, an IP (9 h) of 10.6 mg/dL and a K (9 h) of 3.8 meq/L. The LDH (9 h) was 175.8 IU/L, the Na (9 h) was 142 meq/L and the PL (9 h) was 129.4 mg/dL. The RALB (9 h) was 3.3 g/dL, the TBIL (9 h) was 0.1 mg/dL and the TC (9 h) was 67.6 mg/dL. For the same compound, the TG (9 h) was 46.6 mg/dL, the TP (9 h) was 5.5 g/dL and the gamma-GTP (9 h) was 1 IU/L. It also gave a TERMINAL_BW (24 h) of 227.7 g, an APTT (24 h) of 18.7 s and a Bas (24 h) of 0.6%. It also gave an Eos (24 h) of 0.8%, a Fbg (24 h) of 216.6 mg/dL and a Hb (24 h) of 13.7 g/dL. The Ht (24 h) was 39.5%, the Lym (24 h) was 80.8% and the MCH (24 h) was 21.1 pg. It also gave an MCHC (24 h) of 34.8%, an MCV (24 h) of 60.6 fL and a Mono (24 h) of 2.2%. For the same compound, the Neu (24 h) was 14.8%, the PT (24 h) was 11.9 s and the Plat (24 h) was 129.9 x10_4/uL. The RBC (24 h) was 651.8 x10_4/ul, the Ret (24 h) was 6.2% and the WBC (24 h) was 90.7 x10_2/uL. For the same compound, the KIDNEY_L (24 h) was 1.1 g, the KIDNEY_R (24 h) was 1.1 g and the KIDNEY_TOTAL (24 h) was 2.1 g. For the same compound, the LIVER (24 h) was 10.3 g, the A/G (24 h) was 1.6 and the ALP (24 h) was 981.2 IU/L. For the same compound, the ALT (24 h) was 31.2 IU/L, the AST (24 h) was 70.6 IU/L and the BUN (24 h) was 13.6 mg/dL. The CRE (24 h) was 0.4 mg/dL, the Ca (24 h) was 10.9 mg/dL and the Cl (24 h) was 103 meq/L. The DBIL (24 h) was 0.06 mg/dL, the GLC (24 h) was 192.6 mg/dL and the IP (24 h) was 7.5 mg/dL. For the same compound, the K (24 h) was 4 meq/L, the LDH (24 h) was 203.2 IU/L and the Na (24 h) was 141.2 meq/L. It also gave a PL (24 h) of 131.4 mg/dL, an RALB (24 h) of 3.4 g/dL and a TBIL (24 h) of 0.1 mg/dL. The TC (24 h) was 70.2 mg/dL, the TG (24 h) was 68.2 mg/dL and the TP (24 h) was 5.5 g/dL. For the same compound, the gamma-GTP (24 h) was 1.2 IU/L.
